Reference: publication PMC4323000 (Oncotarget, 2015)
“Also recorded” adds a separate entry of the source. Where two headings read alike, the source gives them in different places.

How the values were obtained:
ABCG2 [1] = details: read-out: In vitro Inhibition (IC50), cited from earlier work
[2] = tested on: ABCG2-overexpressing tumors; details: ref per compound in Table 2; cited from earlier work
ABCG2 [3] = details: ref per compound in Table 2; cited from earlier work
[4] = Pharmacokinetic study of MBL-II-141, CPT-11 and SN-38 (blood, liver, brain; LC-MS/MS); details: for Mean of differences in Blood levels, compound alone versus CPT-11 + MBL-II-141: P (two tailed): CPT-11 0.3616, SN-38 0.0299, MBL-II-141 0.1555; for Mean of differences in Liver levels, compound alone versus CPT-11 + MBL-II-141: P (two tailed): CPT-11 0.6878, SN-38 0.1727, MBL-II-141 0.1046
Method: In order to achieve possible cumulative effects, reiterated administrations (two or three) were carried out with a 4 h time interval between administrations. Blood samples were collected at either 1 h or 4 h after the last injection.
Total blood samples were collected using dried heparinized syringes, avoiding modification of samples. Blood and plasma were stored at −80°C. […] Tissues were crushed using a dried cold system.
Both assays were performed on a C18 column HypersilGold, (ThermoElectron), 3.0 μm, (100 mm × 2.1 mm i.d.). The mass spectrometry analysis was performed in positive ion mode with electrospray source. […] A volume of 50 μL of whole blood or tissue solution was introduced into a conic centrifuge and 50 μL of solution of the internal standard and 300 μL of cold acetonitrile were added. The sample was mixed and centrifuged for 10 min at 13000 g at 5°C. […] The residues were resuspended in 100 μL of mobile phase and 10 μL were injected into the HPLC device. […] When the concentration was over the upper standard concentration, a dilution of the sample was performed using blank whole blood or appropriate tissues. Peak area ratios of compound to the respective internal standard measured at each nominal concentration were used to construct weighted (1/concentration) least-square linear regression curves. […] Results in tissues were normalized to cellular protein content. Results in tissues were normalized to cellular protein content (C1600 Abott technology).

HEK-pcDNA3.1 xenografts = test: Chemosensitization study, just-established ABCG2-negative tumors; details: CPT-11 alone 20 mg/kg
Method: 4.10^6 HEK-pcDNA3.1 or HEK-ABCG2 cells were sub-cutaneously injected into one flank of each SCID mouse, in solution with 50% matrigel. After the apparition of most tumors, mice were randomly distributed into 4 groups of 20 animals (10 ABCG2 negative and 10 ABCG2-positive tumors). […] Two independent injections were carried out per mouse.
Treatments were intraperitoneally administered three times a week until mice sacrifice. […] Finally, mice were sacrificed when the tumor diameter reached 17 mm.
Growth models. Tumor growth curves were modeled with GraphPad© Software. Gaussian distribution models were obtained according to the equation Y = Amplitude*exp (−0.5*((X-Mean)/SD)^2). The amplitude was the height of the center of the distribution in Y units. Mean was the X value at the center of the distribution. SD was a measure of the width of the distribution, in the same units as X. Another model was applied for sum of two Gaussian distributions with Y = one + two (One = Amplitude 1*exp(−0.5*((X-Mean1)/SD1)^2) and Two = Amplitude 2*exp(−0.5*((X-Mean2)/SD2)^2)). Amplitudes were the heights of the center of the distribution in Y units. Means were the X values at the center of the two distributions. SDs were measures of the widths of the distributions, in the same units as X.
Paired t-test. The statistical test used was the paired t-test. It was applied for all data of growth tumor experiments and pharmacokinetics data.

[5] = cited from earlier work
[6] = cited from earlier work; remark: listed apart in the source
[7] = substrate Mitoxantrone, ref [13],[21],[35],[45]–[48] (GF120918), [7] (Triclabendazole)
[8] = CPT-11 20 mg/kg + MBL-II-141 10 mg/kg IP
[9] = substrate Hoechst 3342, ref [6],[24],[49] (Ko143), [40] (YHO-13177)
[10] = I.P., ref per compound in Table 2
[11] = oral, ref per compound in Table 2

COc1cc2c(cc1OC)CN(CCc1ccc(NC(=O)c3cccc4c(=O)c5cccc(OC)c5[nH]c34)cc1)CC2 [GF120918]
IC50 (ABCG2 [1]; [7]): 310 nM | In vivo Impact on Tumor growth [2]: Yes | In vitro ABCG2 Specificity (ABCG2 [3]): No

CCc1c2c(nc3ccc(OC(=O)N4CCC(N5CCCCC5)CC4)cc13)-c1cc3c(c(=O)n1C2)COC(=O)[C@]3(O)CC [CPT-11, irinotecan]
increase of CPT-11 brain levels in the presence of MBL-II-141 [4, 8]: approximately 2 fold | fraction lost from the blood at 4 h ([4]; CPT-11 20 mg/kg IP): 90% | Mean of differences in Brain levels, compound alone versus CPT-11 + MBL-II-141 ([4]; paired t-test over time, P (two tailed): CPT-11 0.0416, MBL-II-141 0.1059): -2.085 | Mean of differences in Blood levels, compound alone versus CPT-11 + MBL-II-141 ([4]; paired t-test over time): -220.0 | Mean of differences in Liver levels, compound alone versus CPT-11 + MBL-II-141 ([4]; paired t-test over time): -28.86 | effect on growth of ABCG2-negative cells (tumors) (HEK-pcDNA3.1 xenografts): completely blocked | survival of mice bearing ABCG2-negative tumors (HEK-pcDNA3.1 xenografts): 100%

COc1ccc2c3c([nH]c2c1)[C@H](CC(C)C)N1C(=O)[C@H](CCC(=O)OC(C)(C)C)NC(=O)[C@@H]1C3 [Ko143]
IC50 (ABCG2 [1]; [9]): […] | IC50 (ABCG2 [1]; substrate Pheophorbide A, ref [6],[24],[49]): […] | In vitro ABCG2 Specificity (ABCG2 [3]): Yes | increase of topotecan plasma levels (oral availability) ([5]; ABCB1(−/−) mice): 4 to 6 fold | In vivo Impact on Pharmacokinetics ([5]; of Topotecan, ref [13],[21],[35],[45]–[48] (GF120918), [6],[24],[49] (Ko143)): Topotecan: Yes | In vivo Toxicity, Acute [6, 10]: > 10 mg/kg I.P. | In vivo Toxicity, Acute [6, 11]: > 50 mg/kg oral

CCc1c2c(nc3ccc(O)cc13)-c1cc3c(c(=O)n1C2)COC(=O)[C@]3(O)CC [SN-38]
Liver/Plasma ratio, fold-change induced by the combination treatment ([4]; 30 min): 0.9 fold-change | Liver/Plasma ratio, fold-change induced by the combination treatment ([4]; 60 min): 0.6 fold-change | Liver/Plasma ratio, fold-change induced by the combination treatment ([4]; 120 min): 1.1 fold-change | Liver/Plasma ratio, fold-change induced by the combination treatment ([4]; 240 min): 1.0 fold-change | Liver/Plasma ratio, fold-change induced by the combination treatment ([4]; 480 min): 1.0 fold-change | change of SN-38 blood levels in the presence of MBL-II-141 [4, 8]: increased; also recorded: strongly increased | difference between CPT-11 and SN-38 levels (SN-38 lower) ([4]; SCID mice): 19 fold | time until which detected in blood ([4]; SN-38 after CPT-11 20 mg/kg IP): 6 h | SN-38 levels in the brain ([4]; after CPT-11 20 mg/kg IP, with or without MBL-II-141): below the limits of quantification; also recorded: under the limit of detection | Mean of differences in Blood levels, compound alone versus CPT-11 + MBL-II-141 ([4]; paired t-test over time): -109.6 | Mean of differences in Liver levels, compound alone versus CPT-11 + MBL-II-141 ([4]; paired t-test over time): -12.65 | SN-38 plasma levels lower than CPT-11 ([5]; ICR mice, 1 h after the injection): 27 fold

CSc1nc2cc(Cl)c(Oc3cccc(Cl)c3Cl)cc2[nH]1 [Triclabendazole]
IC50 (ABCG2 [1]; [7]): ~10000 nM | In vivo Impact on Pharmacokinetics ([5]; of Nitrofurantoin, ref [7]): Nitrofurantoin: Yes | In vivo Toxicity, Acute [6, 10]: > 100 mg/kg I.P.

COc1ccc(/C(C#N)=C/c2ccc(N3CCC(O)CC3)s2)cc1OC [YHO-13177]
IC50 (ABCG2 [1]; [9]): ~300 nM | In vivo Impact on Tumor growth [2]: Yes | In vitro ABCG2 Specificity (ABCG2 [3]): Yes | In vivo Toxicity, Acute ([6]; I.V., ref [13],[21],[35],[45]–[48] (GF120918), [40] (YHO-13177)): > 30 mg/kg I.V. | In vivo Toxicity, Acute [6, 11]: > 200 mg/kg oral
